Laboratory results published in article PMC12519464, “Dual-Site Inhibition of SARS-CoV‑2 RNA-Dependent RNA Polymerase by Small Molecules Able to Block Viral Replication Identified through a Computer-Aided Drug Discovery Approach” (ACS Infectious Diseases, 2025).
Where two headings read alike, the source gives them in different places.

Biological target: SARS-CoV-2 nsp12/7/8 (RTC) complex (Severe acute respiratory syndrome coronavirus 2, UniProt P0DTD1)
Assay: biochemical
Format: biochemical
[1] = read-out: IC50: compound concentration required to inhibit by 50% the SARS-CoV-2 RTC enzymatic activity

SMILES	IC50 [µM]	IC50 [1] [µM]
CC(C)C1=CC(=O)[C@](C)([C@H]2[C@H](O)C[C@@]3(C)[C@@H]4CC=C5[C@@H](CC[C@@H](O[C@@H]6OC[C@@H](O)[C@H](O)[C@H]6O[C@@H]6O[C@@H](C)[C@H](O)[C@@H](O)[C@H]6O)C5(C)C)[C@]4(C)C(=O)C[C@]23C)O1 (racemic) [Picfeltarracemin Ia]	> 100	–
O=C(COc1ccc2c(-c3ccccc3)cc(=O)oc2c1)Nc1ccc(OCc2ccccc2)cc1 [2-(2-oxo-4-phenylchromen-7-yl)oxy-N-(4-phenylmethoxyphenyl)acetamide]	–	80.5 ± 6.24
CC1(C)[C@H](OC(=O)c2ccccc2)CC[C@]2(C)C3=C([C@@H](O)C[C@@H]12)[C@@]1(C)CC[C@@]2(C)CC[C@@](C)(COC(=O)c4ccccc4)C[C@H]2[C@]1(C)CC3 [3,29-Dibenzoyl Rarounitriol]	–	> 100
CC(C)=CCCC(C(=O)O)C1CCC2(C)C3=C(CCC12C)C1(C)CCC(=O)C(C)(C)C1CC3 (stereo not shown) [3-Dehydrotrametenolic acid]	–	> 100
C[C@H]1[C@H](C)CC[C@]2(C(=O)O)CC[C@]3(C)C(=CC[C@@H]4[C@@]5(C)CC[C@H](O)C(C)(C)[C@@H]5CC[C@]43C)[C@H]12 [3-Epiursolic Acid]	–	11.6 ± 3.97
COc1ccc2cc(-c3cc(-c4cc(Cl)cc(Cl)c4)nn3[C@@H](C)c3ccc(C(=O)NCCC(=O)O)cc3)ccc2c1 [3-[[4-[(1S)-1-[3-(3,5-dichlorophenyl)-5-(6-methoxynaphthalen-2-yl)pyrazol-1-yl]ethyl]benzoyl]amino]propanoic acid, reference compound]	–	11.8 ± 6.43
O=C(Nc1cccc(C(=O)O)c1)/C(=C\c1ccccc1)NC(=O)c1ccc(NC(=O)c2ccccc2)cc1 [3-[[(E)-2-[(4-benzamidobenzoyl)amino]-3-phenylprop-2-enoyl]amino]benzoic acid]	–	85.7 ± 0.62
Cc1cc2c(C(C)C)c(O)c(O)c(C=NCc3ccncc3)c2c(O)c1-c1c(C)cc2c(C(C)C)c(O)c(O)c(C=NCc3ccncc3)c2c1O [3-methyl-5-propan-2-yl-8-(pyridin-4-ylmethyliminomethyl)-2-[1,6,7-trihydroxy-3-methyl-5-propan-2-yl-8-(pyridin-4-ylmethyliminomethyl)naphthalen-2-yl]naphthalene-1,6,7-triol]	–	16.1 ± 0.32
Cc1ccccc1N=Cc1c(O)c(O)c(C(C)C)c2cc(C)c(-c3c(C)cc4c(C(C)C)c(O)c(O)c(C=Nc5ccccc5C)c4c3O)c(O)c12 [3-methyl-8-[(2-methylphenyl)iminomethyl]-5-propan-2-yl-2-[1,6,7-trihydroxy-3-methyl-8-[(2-methylphenyl)iminomethyl]-5-propan-2-ylnaphthalen-2-yl]naphthalene-1,6,7-triol]	–	28.4 ± 7.42
O=C(CCn1c2c(c3ccccc31)CCn1c-2nc2ccccc2c1=O)N1CCN(C2=Nc3ccccc3Oc3ccccc32)CC1 [13-{3-[4-(dibenzo[b,f][1,4]oxazepin-11-yl)piperazin-1-yl]-3-oxopropyl}-8,13-dihydroindolo[2',3':3,4]pyrido[2,1-b]quinazolin-5(7H)-one]	–	> 100
CC(C)=CCC[C@@](C)(O)[C@H]1CC[C@]2(C)[C@@H]1[C@H](O)C[C@@H]1[C@@]3(C)CC[C@H](O[C@@H]4O[C@H](CO)[C@@H](O)[C@H](O)[C@H]4O)C(C)(C)[C@@H]3CC[C@]12C [20(R)-Ginsenoside Rh2]	–	> 100
CC(C)(O)CC[C@H]1OC(C)(C)O[C@]1(C)[C@H]1CC[C@@]2(O)C3=CC(=O)[C@@H]4C[C@@H](O)[C@@H](O)C[C@]4(C)[C@H]3CC[C@]12C [20-Hydroxyecdysone 20,22-acetonide]	–	> 100
C=CCOc1cccc(C(=O)[C@@H]2[C@@H]3CCCN3[C@]3(C(=O)Nc4c(C)cc(C)cc43)[C@@]23C(=O)Nc2ccccc23)c1 [(1'S,3R,3'S,7a'S)-5'',7''-dimethyl-1'-{[3-(prop-2-en-1-yloxy)phenyl]carbonyl}-5',6',7',7a'-tetrahydro-1'H-dispiro[indole-3,2'-pyrrolizine-3',3''-indole]-2,2''(1H,1''H)-dione]	–	> 100
